Results as given in article PMC5698383 (Applied Biochemistry and Biotechnology, 2017).

Tests used:
[1] = target: T1, FtFBPaseII (Francisella tularensis, UniProt Q5NEJ8); assay: biochemical; conditions: read-out: % inhibition at 1 mM
T1 construct: gene gplX

[2] = target: T1, FtFBPaseII

T1 sequence (Q5NEJ8 1-328): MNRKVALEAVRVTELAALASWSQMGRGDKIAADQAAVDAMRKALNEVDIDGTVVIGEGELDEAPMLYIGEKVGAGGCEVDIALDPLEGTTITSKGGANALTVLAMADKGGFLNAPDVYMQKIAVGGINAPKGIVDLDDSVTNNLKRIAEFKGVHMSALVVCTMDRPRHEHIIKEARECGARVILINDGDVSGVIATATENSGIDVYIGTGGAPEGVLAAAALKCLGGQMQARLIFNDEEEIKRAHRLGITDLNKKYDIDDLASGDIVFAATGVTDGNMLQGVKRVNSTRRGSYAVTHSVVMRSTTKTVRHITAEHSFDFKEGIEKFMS

SMILES | inhibition at 1000 µM [1] [%] | % inhibition at 150 μM [2] [%]
Nc1ncnc2c1ncn2[C@@H]1O[C@H](COP(=O)(O)OP(=O)(O)O)[C@@H](O)[C@H]1O [Adenosine diphosphate] | 28 | 
O=P(O)(O)O [phosphate] |  | 69
